Measurements published in US20130197085A1, “AGENT AND METHOD FOR STABILIZING MEMBRANE PROTEIN” (priority 2007, published 2013).

Columns and labels:
extrinsic P-gp [1] = assay: Decomposition rate of cell surface-expressed protein (biotin-labeling) in MDCKII cells; assay type: cell-based; conditions: 1 mM 4PBA
[2] = test system: MDCKII cells expressing GFP; assay: Transcellular transport assay of [^3H] TC across MDCKII monolayer, GFP control cells; assay type: cell-based; conditions: 24 hours
Method: (§1) MDCKII cells were dispersed on a Transwell membrane insert (pore size: […]; Falcon) of a 24-well plate, resulting in a density of 1.5×10^5 cells/insert. Two days after the culture, the confluent cells were infected with recombinant adenoviruses having the cDNAs of wild-type, E297G and D482G BSEPs, and GFP, at 50 MOI. […] After completion of the treatment for 24 hours, a transcellular transport assay was carried out (see Mita et al., Am J Physiol Gastrointest Liver Physiol 290: G550-G556, 2006).
(§2) The apparent efflux clearance across the apical membrane (PSapical) was calculated by dividing a steady rate of the transcellular transport of [^3H] TC for 2 hours by the intracellular concentration of the [^3H] TC at the termination of the experiment (2 hours later).

extrinsic P-gp [3] = assay: Cell surface biotinylation method, expression on the surface of MDCKII cells; assay type: cell-based; conditions: 1 mM, 24 hours
DPPIV = assay: Western blotting of canalicular membrane vesicles (CMVs) from treated rats; assay type: in vivo, SD rat; conditions: CMVs from SD rats treated at 0.6 g/kg/day for 10 days
Method: […] 4PBA or a vehicle was given to a male SD rat (6- to 7-week-old) for 10 days, divided over 3 administrations. Canalicular membrane vesicles were prepared from the liver of the rat (Akita et al., Biochim Biophys Acta, 1511: 7-16, 2001), and they were then used in Western blotting and a transport assay. Such transport assay was carried out by a rapid filtration method (Hayashi et al., Biochim Biophys Acta, 1738: 54-62, 2005).

D482G BSEP [4] = target: T1, D482G BSEP (Homo sapiens, UniProt O95342, D482G/L339V); assay: Transcellular transport assay of [^3H] TC across MDCKII monolayer; assay type: cell-based; conditions: 24 hours
T1 construct: expressed in transfected cells; host or cells: MDCKII cells infected with recombinant adenovirus
T1 sequence (O95342 whole entry L339V/D482G): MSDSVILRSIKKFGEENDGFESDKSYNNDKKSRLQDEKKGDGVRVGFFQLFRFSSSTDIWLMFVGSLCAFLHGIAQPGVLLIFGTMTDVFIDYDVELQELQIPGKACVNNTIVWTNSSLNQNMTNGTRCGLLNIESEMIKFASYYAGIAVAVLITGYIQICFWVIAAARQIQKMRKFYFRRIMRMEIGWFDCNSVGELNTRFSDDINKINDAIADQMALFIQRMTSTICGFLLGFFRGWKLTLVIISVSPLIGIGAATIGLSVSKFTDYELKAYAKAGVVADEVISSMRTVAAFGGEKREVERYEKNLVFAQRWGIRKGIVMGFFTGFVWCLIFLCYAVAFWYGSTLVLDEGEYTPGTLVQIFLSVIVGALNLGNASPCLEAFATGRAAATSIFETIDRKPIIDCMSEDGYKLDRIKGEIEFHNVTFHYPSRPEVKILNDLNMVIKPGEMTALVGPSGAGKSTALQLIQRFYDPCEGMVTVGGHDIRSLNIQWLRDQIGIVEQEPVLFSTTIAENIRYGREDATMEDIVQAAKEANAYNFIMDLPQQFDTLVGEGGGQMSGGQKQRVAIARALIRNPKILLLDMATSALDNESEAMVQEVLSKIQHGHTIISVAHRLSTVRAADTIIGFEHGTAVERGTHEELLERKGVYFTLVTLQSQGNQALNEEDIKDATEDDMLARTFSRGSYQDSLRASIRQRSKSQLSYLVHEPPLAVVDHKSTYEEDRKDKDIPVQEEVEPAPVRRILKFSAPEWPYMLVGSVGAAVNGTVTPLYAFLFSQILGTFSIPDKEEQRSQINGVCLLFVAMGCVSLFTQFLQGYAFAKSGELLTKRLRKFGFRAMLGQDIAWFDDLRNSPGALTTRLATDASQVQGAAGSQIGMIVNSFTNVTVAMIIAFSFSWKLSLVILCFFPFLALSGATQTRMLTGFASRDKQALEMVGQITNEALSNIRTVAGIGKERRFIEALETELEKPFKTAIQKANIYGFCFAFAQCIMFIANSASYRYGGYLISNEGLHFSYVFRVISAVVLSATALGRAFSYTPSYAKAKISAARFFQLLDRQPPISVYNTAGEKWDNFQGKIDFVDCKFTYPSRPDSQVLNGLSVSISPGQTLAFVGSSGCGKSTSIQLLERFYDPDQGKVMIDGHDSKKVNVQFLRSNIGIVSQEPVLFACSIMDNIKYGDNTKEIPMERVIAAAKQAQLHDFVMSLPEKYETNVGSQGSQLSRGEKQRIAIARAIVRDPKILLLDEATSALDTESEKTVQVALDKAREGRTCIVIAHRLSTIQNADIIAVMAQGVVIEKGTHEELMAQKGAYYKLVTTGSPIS
Method: as §1, §2

wild-type BSEP [5] = target: T2, wild-type BSEP (Homo sapiens, UniProt O95342, L339V); assay: as above; assay type: cell-based; conditions: 24 hours
T2 construct: expressed in transfected cells; host or cells: MDCKII cells infected with recombinant adenovirus
T2 sequence (O95342 whole entry L339V): as the sequence (O95342 whole entry L339V/D482G) above, with G482D counted along it
Method: as §1, §2

E297G BSEP [6] = target: T3, E297G BSEP (Homo sapiens, UniProt O95342, E297G/L339V); assay: as above; assay type: cell-based; conditions: 24 hours
T3 construct: expressed in transfected cells; host or cells: MDCKII cells infected with recombinant adenovirus
T3 sequence (O95342 whole entry E297G/L339V): as the sequence (O95342 whole entry L339V/D482G) above, with E297G, G482D counted along it
Method: as §1, §2

D482G BSEP [7] = target: T1, D482G BSEP; assay: Cell surface biotinylation method, expression on the surface of MDCKII cells; assay type: cell-based; conditions: 1 mM, 24 hours
Method: (§3) MDCKII cells were dispersed on a 6-well plate, resulting in a density of 2.5×10^5 cells/well. After completion of the culture for 24 hours, the confluent cells were infected with recombinant adenoviruses having the cDNAs of wild-type, E297G and D482G BSEPs, and GFP, at 200 MOI. After completion of the infection, the cells were cultured for 24 hours. […] After completion of the treatment for 24 hours, the cells were biotinylated (see Hayashi et al., Hepatology, 41: 916-924, 2005).

wild-type BSEP [8] = target: T2, wild-type BSEP; assay: as above; assay type: cell-based; conditions: 1 mM, 24 hours
Method: as §3

[9] = test system: intrinsic dipeptidyl peptidase IV (DPPIV); assay: as above; assay type: cell-based; conditions: 1 mM, 24 hours
Method: as §3

E297G BSEP [10] = target: T3, E297G BSEP; assay: as above; assay type: cell-based; conditions: 1 mM, 24 hours
Method: as §3

[11] = test system: intrinsic dipeptidyl peptidase IV (DPPIV); assay: Decomposition rate of cell surface-expressed protein (biotin-labeling) in MDCKII cells; assay type: cell-based; conditions: 1 mM 4PBA
Method: as §3
The remaining biotinylated protein was isolated, and it was then subjected to 6% SDS-PAGE, followed by Western blotting.

[12] = 1 mM, PSapical minus PSapical of GFP cells

Q: `O=C(O)CCCc1ccccc1` [4PBA, 4-phenylbutyric acid] was tested. Which “decomposition of extrinsic P-gp on the cell surface” value (extrinsic P-gp [1]) did it give?
A: Its value is “not influenced”.

Q: And the “efflux of [^3H] TC from the apical side to the base side” value (from here on “efflux of [^3H] TC from the apical side”) ([2]; 1 mM)?
A: Its value is “did not influence”.

Q: What about the “efflux of [^3H] TC from the base side to the apical side” value ([2]; 1 mM) of the same molecule?
A: The value was “such effects were not observed”.

Q: What about the PSapical value ([2]; 4PBA treatment 1 mM) of the same molecule?
A: The PSapical value was “no changes”.

Q: And the “expression of extrinsic P-gp” value (extrinsic P-gp [3])?
A: Its value is “not influenced”.

Q: What about the “expression level of DPPIV in CMVs” value (DPPIV) of the same molecule?
A: The value was “not changed”.

Q: And the “efflux of [^3H] TC from the apical side” value (D482G BSEP [4]; 1 mM, MDCKII monolayer)?
A: The value was “did not influence”.

Q: And the “efflux of [^3H] TC from the base side to the apical side, increase” value (“efflux of [^3H] TC … increase” below) (D482G BSEP [4]; 1 mM, MDCKII monolayer)?
A: The value was 3 times.

Q: And the “BSEP-dependent PSapical value (PSapical, BSEP), increase” value (D482G BSEP [4]; [12])?
A: The value was 2.8 times.

Q: And the PSapical value (D482G BSEP [4]; 4PBA treatment 1 mM)?
A: Its PSapical value is “increased”.

Q: What about the “efflux of [^3H] TC from the apical side” value (wild-type BSEP [5]; 1 mM, MDCKII monolayer) of the same molecule?
A: Its value is “did not influence”.

Q: What about the “efflux of [^3H] TC … increase” value (wild-type BSEP [5]; 1 mM, MDCKII monolayer) of the same molecule?
A: The value was 1.5 times.

Q: What about the “BSEP-dependent PSapical value (PSapical, BSEP), increase” value (wild-type BSEP [5]; [12]) of the same molecule?
A: The value was 1.7 times.

Q: What about the PSapical value (wild-type BSEP [5]; 4PBA treatment 1 mM) of the same molecule?
A: The PSapical value was “increased”.

Q: What about the “efflux of [^3H] TC from the apical side” value (E297G BSEP [6]; 1 mM, MDCKII monolayer) of the same molecule?
A: The value was “did not influence”.

Q: What about the “efflux of [^3H] TC … increase” value (E297G BSEP [6]; 1 mM, MDCKII monolayer) of the same molecule?
A: Its value is 2.5 times.

Q: What about the “BSEP-dependent PSapical value (PSapical, BSEP), increase” value (E297G BSEP [6]; [12]) of the same molecule?
A: The value was 3.0 times.

Q: And the PSapical value (E297G BSEP [6]; 4PBA treatment 1 mM)?
A: Its PSapical value is “increased”.

Q: What about the “expression level on the cell surface, increase” value (shortened to “expression level … increase”) (D482G BSEP [7]) of the same molecule?
A: Its value is 2.6 times.

Q: And the “expression level … increase” value (wild-type BSEP [8])?
A: The value was 1.8 times.

Q: And the “expression of intrinsic DPPIV” value [9]?
A: Its value is “not influenced”.

Q: What about the “expression level … increase” value (E297G BSEP [10]) of the same molecule?
A: The value was 3.1 times.

Q: And the “decomposition of intrinsic DPPIV on the cell surface” value [11]?
A: The value was “not influenced”.
